The source of these data is article PMC11481179, “Development and Application of Reversible and Irreversible Covalent Probes for Human and Mouse Cathepsin‐K Activity Detection, Revealing Nuclear Activity” (Advanced Science, 2024).

Assay [1] deals with CTSS (Homo sapiens, UniProt P25774). Nature of the assay: Recombinant cathepsin inhibition, residual activity labeled by pan cathepsin probe GB123, in-gel fluorescence. It counts as biochemical. To be noted: even at 10 µM. On the procedure: Figure 1 In vitro evaluation of CTSK targeted compounds. a) Labeling of recombinant cathepsins by ABPs. Recombinant cathepsins were treated with increasing concentrations of ABPs for 1 h. Samples were separated by SDS‐PAGE and scanned for fluorescence by a Typhoon scanner at 635/670 nm. All probes show dose‐dependent binding to the CTSK, and have lower affinity to CTSS except GD36, b) CTSK [0.5–280 ng] was labeled with the indicated ABPs [5 µM]. Incubations were performed for 1 h at 37 °C, at pH 5.5. Samples were analyzed as described in (a). c) Recombinant cathepsins B, K, L, and S [0.5 µM] were first treated with the indicated concentrations of the inhibitor GD30 or vehicle for 1 h followed by incubation with a pan cathepsin probe GB123 [1 µM] for 1 h. Samples were analyzed as described in (a). d) Quantitative analysis of CTSK inhibition by GD30 presented in (d), data represent mean values ± standard error, n = 3. e) IC50 plot of GD30 inhibition of CTSK activity.
To further evaluate the probes for their selectivity, we applied a potent and selective covalent inhibitor, Compound 6 (GD30); the inhibitor was generated as a precursor of GD32 and GD36. GD30 was evaluated for its ability to block cathepsin activities by preincubating it with each recombinant enzyme before labeling it by a pan cathepsin ABP, GB123. […]
Recombinant cathepsin inhibition: Recombinant human CTSL, CTSB, CTSK, and CTSS (0.5 µM) were pretreated with different concentrations of inhibitors (GD30, ODN) for 1 h in reaction buffer (50 mM acetate, 4 mM DTT and 5 mM MgCl2, pH 5.5) at 37 °C. GB123, 1 µM, was added, and incubated with samples for 1 h at 37 °C. The reaction was stopped by the addition of sample buffer 4x (40% glycerol, 0.2 M Tris/HCl pH 6.8, 20% beta-mercaptoethanol, 12% SDS, and 0.4 mg/ml bromophenol blue). Samples were then boiled at 95 °C for 2 mins, separated on a 12.5% SDS gel, and scanned for fluorescence by a Typhoon scanner FLA 9500 at excitation/emission wavelengths of 635/670 nm.
Recombinant cathepsin labeling: Recombinant human CTSL, CTSB, CTSK, and CTSS (0.5 µM) were pretreated with different concentrations of probes (GD32, GD36, GD37, or GD42)

Assay [2] addresses T1, CTSK in U2-OS cells (Homo sapiens, UniProt P43235).
T1 construct: ability to label endogenous CTSK activity in intact cells; endogenous in cells; host or cells: U-2 OS
T1 sequence (P43235 115-329): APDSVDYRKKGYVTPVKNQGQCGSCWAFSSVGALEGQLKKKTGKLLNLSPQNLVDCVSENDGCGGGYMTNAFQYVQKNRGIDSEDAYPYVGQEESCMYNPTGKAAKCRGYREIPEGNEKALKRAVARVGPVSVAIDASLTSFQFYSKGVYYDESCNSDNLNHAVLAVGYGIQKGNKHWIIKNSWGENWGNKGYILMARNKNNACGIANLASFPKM
Nature of the assay: Colocalization of ABP with anti-CTSK antibody, confocal microscopy. To be noted: fixed U2-OS cells. Format: cell-based. On the procedure:
The probes were then evaluated for their ability to detect active CTSK by fluorescent microscopy. ABPs were incubated with intact U‐2 OS cells, after preincubation with vehicle, a pan cathepsin inhibitor (GB111‐NH2 ),^[ [47] ^] or our selective CTSK inhibitor GD30. Cells were then fixed and imaged by confocal fluorescent microscopy, (Figure 3a). The irreversible GD32 detected active CTSK and was inhibited by both inhibitors, indicating probe specificity. […] However, when live cell imaging was performed without fixation, active CTSK was detected by GD42 although barely, reflecting the probe affinity together with the low level of active CTSK in this cell line (Figure 3b). In order to determine the specificity of GD32’s fluorescence signaling, U2‐OS cells were treated with the probe. […] Additionally, the increased extent of the antibody signal may be attributed to its interaction with the pro‐CTSK, or CTSK that is bound to an endogenous inhibitor, which should not be detected by GD32 since they are not active. Figure 3 CTSK activity detected in intact cells. a) Cultures of U2‐OS cells were grown in 8‐well chambers. […] Red, probe fluorescence, blue, DAPI. page 14: Evaluation of the permeability of GD30, and ODN to intact cells, competition assay: MG63, U87-MG, A549, and U-2 OS cells (5x10^5 cells/well) were seeded in a six-well plate one day before treatment. […]

Sequence of CTSS (P25774 115-331): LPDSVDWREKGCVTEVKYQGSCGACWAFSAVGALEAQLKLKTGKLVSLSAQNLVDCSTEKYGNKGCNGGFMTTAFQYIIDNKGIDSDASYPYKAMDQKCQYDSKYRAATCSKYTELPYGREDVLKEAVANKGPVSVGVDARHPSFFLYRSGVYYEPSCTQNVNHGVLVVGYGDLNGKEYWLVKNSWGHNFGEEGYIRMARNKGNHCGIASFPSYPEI

As to `C#CCNC(=O)[C@H](CC(C)C)N[C@@H](c1ccc(-c2ccc(S(=O)(=O)CCNC(=O)OC(C)(C)C)cc2)cc1)C(F)(F)F` [GD30], in assay [1], the “inhibition of recombinant cathepsin” value is listed as “not inhibiting”.

Regarding `C#CCNC(=O)[C@H](CC(C)C)N[C@@H](c1ccc(-c2ccc(S(=O)(=O)CCNC(=O)CCCCC[N+]3=C(/C=C/C=C/C=C4/N(C)c5ccc(S(=O)(=O)O)cc5C4(C)C)C(C)(C)c4cc(S(=O)(=O)O)ccc43)cc2)cc1)C(F)(F)F` [GD32], the “overlap coefficiency of probe signal (Cy5) with CTSK antibody (Cy3)” value in assay [2] amounted to 0.892.
